These results are taken from article PMC2834170 (Bioorganic & medicinal chemistry letters, 2010).

One assay concerns the target μ opioid receptor (Homo sapiens, UniProt P35372). The assay can be described thus: Inhibition of μ opioid binding to CHO membranes.
Assay [1] concerns μ, δ and κ opioid receptors. The assay can be described thus: Selectivity across μ, δ and κ opioid binding to CHO membranes. Particulars: for Selectivity μ/δ/κ: ratio of Ki values, CHO membranes.
The target of the next assay is κ opioid receptor (Homo sapiens, UniProt P41145). The assay can be described thus: Inhibition of κ opioid binding to CHO membranes.
κ opioid receptor, sequence (P41145 whole entry): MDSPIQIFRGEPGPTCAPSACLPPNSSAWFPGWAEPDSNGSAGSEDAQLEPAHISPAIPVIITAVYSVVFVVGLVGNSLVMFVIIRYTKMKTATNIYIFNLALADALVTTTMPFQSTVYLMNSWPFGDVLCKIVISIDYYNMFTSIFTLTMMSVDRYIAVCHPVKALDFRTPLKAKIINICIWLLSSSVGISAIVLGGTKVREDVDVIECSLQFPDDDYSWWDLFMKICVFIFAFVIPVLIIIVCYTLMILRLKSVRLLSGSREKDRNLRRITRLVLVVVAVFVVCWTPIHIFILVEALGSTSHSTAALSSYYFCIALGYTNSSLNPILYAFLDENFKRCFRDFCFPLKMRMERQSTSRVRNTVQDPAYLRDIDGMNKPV
[2] abbreviates: relative to ether based compound 3.

μ opioid receptor, sequence (P35372 whole entry, species assumed): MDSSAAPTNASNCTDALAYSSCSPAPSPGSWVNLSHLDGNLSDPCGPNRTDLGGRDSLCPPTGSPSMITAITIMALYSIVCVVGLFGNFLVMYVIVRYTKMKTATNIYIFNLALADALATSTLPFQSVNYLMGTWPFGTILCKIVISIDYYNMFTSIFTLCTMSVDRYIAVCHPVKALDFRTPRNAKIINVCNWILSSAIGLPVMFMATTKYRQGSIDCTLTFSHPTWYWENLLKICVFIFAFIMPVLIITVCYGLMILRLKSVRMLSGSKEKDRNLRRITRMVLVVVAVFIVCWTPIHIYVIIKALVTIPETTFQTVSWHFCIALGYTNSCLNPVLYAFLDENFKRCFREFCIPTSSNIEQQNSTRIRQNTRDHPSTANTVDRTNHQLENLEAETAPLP

As for `OC(COc1ccc2c(c1)[C@@]13CCCC[C@H]1[C@@H](C2)N(CC1CCC1)CC3)COc1ccc2c(c1)[C@@]13CCCC[C@H]1[C@@H](C2)N(CC1CCC1)CC3` [Compound 6], the “greater binding affinity at the μ receptor” value at μ opioid receptor (relative to des-hydroxy analog 5) came out at 7.5 fold. The “Selectivity μ/δ/κ” value in assay [1] is recorded as 1/39/1.

On to `OC(COc1ccc2c(c1)[C@@]13CCCC[C@H]1[C@@H](C2)N(CC1CCC1)CC3)CC(O)COc1ccc2c(c1)[C@@]13CCCC[C@H]1[C@@H](C2)N(CC1CCC1)CC3` (some centres unmarked) [Compound 7], for which the “Selectivity μ/δ/κ” value in assay [1] is recorded as 7/194/1.

As to `OC(CCCCC(O)COc1ccc2c(c1)[C@@]13CCCC[C@H]1[C@@H](C2)N(CC1CCC1)CC3)COc1ccc2c(c1)[C@@]13CCCC[C@H]1[C@@H](C2)N(CC1CCC1)CC3` (some centres unmarked) [Compound 10], in assay [1], the “Selectivity μ/δ/κ” value is on record as 1/23/1.

In the case of `OC(CCCCCCC(O)COc1ccc2c(c1)[C@@]13CCCC[C@H]1[C@@H](C2)N(CC1CCC1)CC3)COc1ccc2c(c1)[C@@]13CCCC[C@H]1[C@@H](C2)N(CC1CCC1)CC3` (stereo partly drawn) [Compound 12, Bis-((−)-N-cyclobutylmethylmorphinan-3-oxy) decane-2,9-diol], on μ opioid receptor (setting [2]), the “increase in binding affinity at the μ opioid receptor” value is given as 27 fold. The “increase in binding affinity at the κ opioid receptor” value on κ opioid receptor (setting [2]) was determined as 86 fold.

As for `c1cc2c(cc1OCC1CO1)[C@@]13CCCC[C@H]1[C@@H](C2)N(CC1CCC1)CC3` (some centres unmarked) [Compound 14], the “Selectivity μ/δ/κ” value in assay [1] is listed as 1/27/5.

Take `CCCCCCCCC(O)COc1ccc2c(c1)[C@@]13CCCC[C@H]1[C@@H](C2)N(CC1CCC1)CC3` (some centres unmarked) [Compound 15]: the “weaker binding affinity at the μ and κ receptors” value in assay [1] (relative to bivalent ligand 12) was 3–6 fold.

`CCCCCCCCCC(=O)Oc1ccc2c(c1)[C@@]13CCCC[C@H]1[C@@H](C2)N(CC1CCC1)CC3` [Compound 16]: at μ opioid receptor (CHO membranes), the “Ki (nM) ± SE μ” value is “sub-nanomolar”. For the same compound, at κ opioid receptor (CHO membranes), the “Ki (nM) ± SE κ” value was “sub-nanomolar”. For the same compound, the “Selectivity μ/δ/κ” value in assay [1] is given as 1/100/1.

On to `CCCCCCCCCCOc1ccc2c(c1)[C@@]13CCCC[C@H]1[C@@H](C2)N(CC1CCC1)CC3` [Compound 17], for which the “weaker binding affinity at the μ opioid receptor” value at μ opioid receptor (relative to 15) came out at 10 fold.

Consider `OC(COc1ccccc1)COc1ccc2c(c1)[C@@]13CCCC[C@H]1[C@@H](C2)N(CC1CCC1)CC3` (some centres unmarked) [Compound 18], for which, at μ opioid receptor (relative to bivalent hydroxy ether 6), the “weaker binding affinity at the μ opioid receptor” value turned out to be 7.5 fold. Further, the “Selectivity μ/δ/κ” value in assay [1] is 1/13/3.
